Earlier results on three molecules are cited in patent US20240335458A1, “OPHTHALMIC COMPOSITION FOR THE TREATMENT OF VISUAL DISORDERS” (FOODVICA, S.A. DE C.V., priority 2021, published 2024).

SMILES strings stand for the structures.

The test system of data set [1] is cataracts. Conditions: 14 intravitreal injections of lanosterol nanoparticles (final dose 1.4 mg) plus 50 μL drops 3 times a day for 6 weeks, 7 dogs.
For data set [2], the system named is protein aggregates obtained from surgically removed cataracts. As to conditions: 2 mg/ml protein aggregates, 10 µM and 200 μM, 6-day treatment at room temperature.
Data set [3] deals with rat lens opacities. As to conditions: 15 mM lanosterol in liposomes.
Data set [4] has as its system age-related cataract human lens nuclei. As to conditions: 25 mM lanosterol solution, 6 days.
Data set [5] concerns natural cataract lens of rabbits. Conditions: 25 mM lanosterol, 6 days.
In data set [6] the test system is sodium selenite-induced cataract.

As for `CC(C)=CCC[C@@H](C)[C@H]1CC[C@@]2(C)C3=C(CC[C@]12C)[C@@]1(C)CC[C@H](O)C(C)(C)[C@@H]1CC3` [lanosterol], in data set [1], the “Reduction of cataract stage” value is “reduce up to two degrees the stage of cataracts”. Besides, the “Macroscopic clearing of protein aggregate solutions” value in data set [2] was “dramatically cleared the originally dark solutions in a dose-dependent way”. Besides, the “Reversal of lens opacities” value in data set [3] was “failed to reverse the opacities or prevent progression”. In addition, the “Reversal of opacification of cataract nuclei” value in data set [4] is recorded as “did not reverse the opacification”. In addition, the “Lens clarity before and after treatment” value in data set [5] was “solid trend towards reduction of cataract severity”.

`C[C@H](CCCC(C)(C)O)[C@H]1CC[C@H]2[C@@H]3CC=C4C[C@@H](O)CC[C@]4(C)[C@H]3CC[C@]12C` [25-hydroxycholesterol]: the “Macroscopic clearing of protein aggregate solutions” value in data set [2] is recorded as “dramatically cleared the originally dark solutions in a dose-dependent way”.

With `COc1cc(/C=C/C(=O)CC(=O)/C=C/c2ccc(O)c(OC)c2)ccc1O` [curcumin], the “Levels of lipid peroxidation, enzymatic and non-enzymatic antioxidants” value in data set [6] (curcumin 75 mg/kg body weight single dose, sodium selenite 15 μM/kg body weight) was “significant reduction”. In data set [6] (selenite-induced cataractogenesis), the “aA- and aB-crystallin and Hsp 70 expression” value was “suppressed aA- and aB-crystallin expression induced by selenite and Hsp 70”.
